Assay results: patent publication US9809624B2, “Neurotensin analogues for radioisotope targeting to neurotensin receptor-positive tumors” (INSERM (Institut National de la Sante et de la Recherche …, priority 2009, dated 2017)
Non-standard residues stand in square brackets, D forms with d. Residues, ends and D or L forms follow the SMILES beside them. Tle = CC(C)(C)[C@H](N)C(=O)O

How the values were obtained:
[1] = target: T1, NTS1 (Homo sapiens, UniProt P30989); assay: Binding to living HT29 cells (competition); conditions: 60 min 37° C., tracer [Lys6(DTPA(111In))]-NT, the labeled DTPA(111In)-peptide itself, or 125I-NT (DOTA-peptides)
T1 construct: endogenous in cells; host or cells: HT29 cells (membranes or living cells)
Method: After washing the wells twice with ice-cold DMEM 0.2% BSA, cells were lysed in 500 μL 0.1N NaOH and radioactivity was counted. Non-specific binding was evaluated in the presence of 10^-6 M neurotensin. Competition curves were analyzed with the “Equilibrium Expert” software (Raguin et al., Anal. Biochem. (2002) 310, 1-14). All experiments were performed three times in triplicate. Ki values for binding to HT29 cell membranes and IC50 for binding to cells were used to evaluate affinity (Table 2).

[2] = target: T1, NTS1; assay: Binding to HT29 cell membranes (competition with 125I-Tyr3-neurotensin); conditions: 50 pM 125I-Tyr3-neurotensin, 45 min room temperature
Method: Membrane bound activity was recovered by filtration onto Whatman GF/B filters presoaked for 1 hour with polyethyleneimine (0.2% in water) and rinsed twice with buffer. Non-specific binding was evaluated in the presence of 10^-6 M neurotensin. Radioactivity was counted and results were analyzed with GraphPad Prism® (GraphPad Software, Inc. San Diego, Calif.). All experiments were performed three times in triplicate. Ki values for binding to HT29 cell membranes and IC50 for binding to cells were used to evaluate affinity (Table 2).

T1 sequence (P30989 whole entry): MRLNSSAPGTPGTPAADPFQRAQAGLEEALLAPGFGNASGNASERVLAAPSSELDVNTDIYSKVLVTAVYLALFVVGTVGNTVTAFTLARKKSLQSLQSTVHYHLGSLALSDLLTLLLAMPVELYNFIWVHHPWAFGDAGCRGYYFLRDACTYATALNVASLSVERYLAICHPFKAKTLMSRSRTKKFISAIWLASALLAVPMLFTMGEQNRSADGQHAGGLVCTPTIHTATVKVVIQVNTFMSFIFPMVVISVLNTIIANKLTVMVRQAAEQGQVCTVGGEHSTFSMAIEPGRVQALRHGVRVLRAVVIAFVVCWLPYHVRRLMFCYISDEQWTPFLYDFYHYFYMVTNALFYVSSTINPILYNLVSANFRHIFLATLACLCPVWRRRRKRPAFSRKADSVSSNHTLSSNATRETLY

IC50 [1] | Ki [2] | Structure (SMILES)
0.82 ± 0.08 nM | 0.072 ± 0.019 nM | CC[C@H](C)[C@H](NC(=O)[C@H](Cc1ccc(O)cc1)NC(=O)[C@@H]1CCCN1C(=O)[C@H](CCCNC(=N)N)NC(=O)[C@H](CCCNC(=N)N)NC(=O)[C@@H]1CCCN1C(=O)[C@H](CCCCN)NC(C)=O)C(=O)N[C@@H](CC(C)C)C(=O)O [NT-20.1]
2.46 ± 0.79 nM | 0.26 ± 0.07 nM | CC(=O)N[C@@H](CCCCN)C(=O)N1CCC[C@H]1C(=O)N[C@@H](CCCNC(=N)N)C(=O)N[C@@H](CCCNC(=N)N)C(=O)N1CCC[C@H]1C(=O)N[C@@H](Cc1ccc(O)cc1)C(=O)N[C@H](C(=O)N[C@@H](CC(C)C)C(=O)O)C(C)(C)C [NT-20.2, Ac-Lys-Pro-Arg-Arg-Pro-Tyr-Tle-Leu-OH] (Ac-KPRRPY[Tle]L-OH)
